# Experiments:
# Myeloperoxidase (MPO) = test: Neutrophil infiltration in colon tissue (MPO assay); assay type: in vivo, C57BL/6 mice; conditions: DSS-induced colitic mice, Pd-Ib treatment groups
# Protocol: Myeloperoxidase (MPO) is an enzyme mainly released by neutrophil, and its activity is directly associated with the severity of inflammation in a given tissue. In this example, MPO activity is measured as described in our previous study. Briefly, the colon tissues kept at −80° C. are weighed and homogenized in 0.5% hexadecyltrimethylammonium bromide 1 mL per 100 mg of colon tissue. The homogenates are centrifuged at 19 000 rpm at 4° C. for 15 min. Aliquots of 80 iL supernatant are mixed with 120 μL potassium phosphate buffer (50 mmol, pH 6.0) with 0.0005% o-dianisidine dihydrochloride and 0.1% hydrogen peroxide. Changes in optical density are measured at 460 nm at room temperature (25° C.). MPO activity is calculated from the rate of optical density changes and one unit of MPO activity is defined as the amount of enzyme present that produced a change in optical density of […] at 25° C. in the final reaction volume. The results are normalized to the wet weight of colon tissue and quantified as units/mg tissue.
# Colitis is induced in all groups except the control group. Pd-Ib and sulfasalazine are administered to mice from day 6 to day 12. On day 13, the mice are sacrificed, and MPO activity is determined in colon homogenates. Data are expressed as mean±SEM, n=8 (*p<0.05, **p<0.01, ***p<0.001, compared with DSS model group).
# DSS-induced colitis = test: Chronic DSS-induced colitis in mice (body weight, DAI, colon length, histology); assay type: in vivo, C57BL/6 mice
# From the text: 6-week-old male C57BL/6 mice weighing 18-20 g are purchased from the Laboratory Animal Services Center, the Chinese University of Hong Kong. The study protocols are approved by the committee for Care of Laboratory Animals in the School of Chinese Medicine at the Hong Kong Baptist University. The animals are divided into six groups (8-10 each group): control group (mice received drinking water and control diet), DSS-treated group (mice received 2.0% DSS in drinking and control diet), positive control group (mice received 2.0% DSS in drinking and ip, 300 mg/kg/day of sulfasalazine), Pd-Ib treatment groups will be given different dosed of Pd-Ib (mice received 2.0% DSS in drinking and i.p., 30, 60, or 120 mg/kg/day, respectively). As depicted in experiment design shown in FIG. 9, the mice are given tap water for 6 days, and then be divided into 6 groups. DSS is dissolved in distilled water at a concentration of 2% (w/v) and administered to the mice. The first day and the last day of DSS treatment are designated as day 7 and day 11, respectively. Mice are marked and checked daily for body weight. On day 12, body weight, stool consistency, and gross bleeding of each mouse are assessed, and animals showing body weight loss, diarrhea, and bleeding are selected for further analysis. All colitis mice are then interventions once daily for seven days, with eight mice in each group. The DSS model group is administered with tap water as negative control; while sulfasalazine is given as positive control (i.p., 300 mg/kg/day) and Pd-Ib treatment groups are given different doses of Pd-Ib (i.p., 30, 60, or 120 mg/kg/day, respectively). In parallel, a vehicle control group is also set up to receive drinking tap water without DSS throughout the entire experimental period. On day 19, after the mice are killed under anesthesia induced by pentobarbital sodium (i.p., 0.65 g/kg), the length of the large intestine is measured. All portions are stored at −80° C. for biochemical assays. The DAI is determined by scoring changes in the body weight, diarrhea, colon length, and bleeding. In brief, body weight, stool consistency, colon length and bleeding in the stool are monitored daily for determination of DAI. At the end of the experiment, mice are killed, and the colon is dissected from each mouse, and the length of which is measured from the ileocecal junction to the anal verge. The colons are opened longitudinally, gently washed with ice-cold PBS, fixed in 4% paraformaldehyde overnight, and embedded in paraffin. Five-micro-meter sections are stained with hematoxylin/eosin according to a standard procedure to evaluate colonic damage. Colitis is induced in all groups except the control group. Pd-Ib and sulfasalazine are administered to mice from day 6 to day 12. The change in body weight is taken as the difference between the body weight before induction of colitis and that immediately before sacrifice on day 13. The DAI score is determined by combining scores of (i) body weight loss, (ii) stool consistency, and (iii) stool bleeding. On day 13, the mice are sacrificed, and the colon lengths are measured. Data are expressed as mean±SEM, n=8 (^###p<0.001, compared with the control group; *p<0.05, **p<0.01, ***p<0.001, compared with DSS model group).
# iNOS = test: Real-time PCR of iNOS mRNA in LPS-stimulated RAW-Blue cells; assay type: cell-based, murine; conditions: LPS 1 μg/mL, 5, 10, 20 μg/mL, 20 hours
# Protocol: After macrophages are treated with 1 μg/mL of LPS in absence or presence various concentrations of Pd-Ib (5, 10, 20 μg/mL) for 20 hours, the mRNA levels of iNOS (A), TNF-α (B) and IL-1β (C) are determined by real time PCR, while the production of NO (D) is determined by Griess reagent. Data are derived from three independent experiments and presented as mean±SEM, “con” stands for the vehicle control group. ^#Compared with control group. *P<0.05, **P<0.01 and ***P<0.001 are compared with LPS-alone group.
# Raw-Blue cells are plated at 20×10^5 cells/well in 12-well plate. After 24 hours of incubation, cells are pretreated with various concentrations (5-20 μg/mL) of Pd-Ib for 2 hours, followed by co-culturing with LPS (1 μg/mL) for 20 hours. Total RNA of Raw-Blue cells is extracted by Trizol reagent. Two micrograms (2 μg) of total RNA are reverse-transcribed with RT master mix to obtain cDNA. Real-time PCR is performed in a ViiA7 real-time PCR instrument (Applied Biosystems, Life Technologies, CA, USA) with the SYBR Green kit. A melting curve analysis is carried out after amplification to verify the accuracy of the amplicon. The comparative cycle of threshold (ΔΔCT) method of relative quantification is used to determine the fold-change in expression. Primer sequences for mRNA analysis of IL-1β, TNF-α, iNOS and β-Actin are described in Table 1.
smiles,measurement,setting,value
"C/C=C(\C)C(=O)OC1C(=O)c2c(ccc3ccc(=O)oc23)OC1(C)C (single isomer, unassigned; (+)) [Pd-Ib, (+)-3′-Angeloyloxy-4′-keto-3′,4′-dihydroseselin]",MPO activity in colon,Myeloperoxidase (MPO),suppresses MPO activity significantly
same,body weight loss,DSS-induced colitis; 30 mg/kg/day,mildly effective in preventing body weight loss
same,body weight loss,DSS-induced colitis; 60 mg/kg/day,mildly effective in preventing body weight loss
same,body weight loss,"DSS-induced colitis; 120 mg/kg/day, compared with DSS model group after 10 days (p<0.05)",recover the body weight loss significantly
same,DAI score,"DSS-induced colitis; 120 mg/kg/day, versus untreated mice (p<0.05)",significantly lower
same,shortening of colon length,"DSS-induced colitis; 30, 60, 120 mg/kg/day (p<0.05, p<0.001)",rectified after administration with Pd-Ib at indicated concentration levels in a dose-dependent manner
same,histological manifestation of colon tissue sections,"DSS-induced colitis; 30, 60, 120 mg/kg/day for seven days, compared with DSS group","far fewer infiltrating cells, a significantly lower degree of mucosal injury, and less edema"
same,mRNA level of iNOS,iNOS,remarkedly inhibits the mRNA level of iNOS in a dose-dependent manner

# — US9408828B2, “(+)-3′-angeloyloxy-4′-keto-3′,4′-dihydroseselin for treating inflammation” (Hong Kong Baptist University, priority 2014, dated 2016)
